Reference: PMC10937676, “Targeting the NTSR2/TrkB oncogenic pathway in chronic lymphocytic leukemia” (Scientific Reports, 2024)

Columns and labels:
[1] = test system: all tyrosine-phosphorylated proteins; experiment: Immunoblot, relative phosphorylation level of all tyrosine-phosphorylated proteins in CLL-B cells; assay type: cell-based, human; settings: CLL-B cells from 10 patients, overnight, 10 µM
Procedure: (§1) Figure 5 The peptide inhibits kinase phosphorylation. CLL-B cells from 10 patients were incubated overnight, with or without 10 µM of TAT-Pep. Whole cell lysates were then prepared, and 10 µg of proteins were immunoblotted to assess the following parameters. (A) Relative phosphorylation level of SRC. (B) Relative phosphorylation level of AKT. (C) Relative phosphorylation level of LYN. (D) Relative phosphorylation level of BTK. (E) Relative phosphorylation level of all tyrosine-phosphorylated proteins.
(§2) Whole cell lysate proteins were extracted using RIPA buffer (Sigma-Aldrich) and sonication (VibraCell™). Plasma membrane proteins were recovered by using the Plasma Membrane Protein Extraction Kit (Abcam) according to the manufacturer’s instructions. A list of the antibodies used for immunoblotting is available in Supplementary Table 2. Bands were quantitatively assessed by densitometry using Fiji software. To evaluate the level of interaction of NTSR2 and TRKB we normalized the density of the TRKB bands by the density of the NTSR2 bands to obtain the relative amount of TRKB co-precipitated through NTSR2.

BCL-XL mRNA = experiment: RTqPCR, mRNA level of BCL-XL in CLL-B cells; assay type: cell-based, human; settings: CLL-B cells from 12 patients, overnight, 10 µM, 18S housekeeping gene
Excerpt: (§3) Concerning anti-apoptotic protein expression, a decrease in anti-apoptotic proteins BCL-2; BCL-XL and MCL-1 was observed after TAT-Pep treatment of CLL-B cells, possibly as a consequence of the SRC kinase inactivation (Fig. 6A–C). To unveil whether the regulation mechanism behind the observed modifications was transcriptional or post-transcriptional, we evaluated the mRNA levels of all three anti-apoptotic proteins following peptide treatment. […] To further underline that the induction of cell death following TAT-Pep treatment involved apoptosis regulation pathways, we used B cells from six CLL patients and stained them with Annexin V in both TAT-Pep treated and untreated conditions. […]
(§4) Figure 6 The peptide lowers anti-apoptotic proteins levels. […] CLL-B cells from 12 patients were incubated overnight, with or without 10 µM of TAT-Pep, subsequently RNA was extracted from cell lysates and mRNA levels of BCL-2 (D); BCL-XL (E) and MCL-1 (F) were evaluated using RTqPCR; 18S was used as a housekeeping gene. (G) Increased concentrations (0 to 30 µM) of TAT-Pep were incubated with 20,000 CLL-B, and the number of Annexin V-positive cells was measured using the Incucyte live-cell imaging device. Fluorescence was monitored for 48 h. […] The ‘Green Object Count/Phase Object Count’ ratio was determined using the Incucyte analysis software to obtain the percentage of apoptotic cells. […]

SRC = experiment: Immunoblot, relative phosphorylation level of SRC in CLL-B cells; assay type: cell-based, human; settings: CLL-B cells from 10 patients, overnight, 10 µM
Procedure: as §1, §2

MCL-1 mRNA = experiment: RTqPCR, mRNA level of MCL-1 in CLL-B cells; assay type: cell-based, human; settings: CLL-B cells from 12 patients, overnight, 10 µM, 18S housekeeping gene
Excerpt: as §3, §4

BCL-2 = experiment: Immunoblot, relative level of anti-apoptotic protein BCL-2 in CLL-B cells; assay type: cell-based, human; settings: CLL-B cells from 10 patients, overnight, 10 µM
Excerpt: as §3, §4

BCL-XL = experiment: Immunoblot, relative level of anti-apoptotic protein BCL-XL in CLL-B cells; assay type: cell-based, human; settings: CLL-B cells from 10 patients, overnight, 10 µM
Excerpt: as §3, §4

BCL-2 mRNA = experiment: RTqPCR, mRNA level of BCL-2 in CLL-B cells; assay type: cell-based, human; settings: CLL-B cells from 12 patients, overnight, 10 µM, 18S housekeeping gene
Excerpt: as §3, §4

MCL-1 = experiment: Immunoblot, relative level of anti-apoptotic protein MCL-1 in CLL-B cells; assay type: cell-based, human; settings: CLL-B cells from 10 patients, overnight, 10 µM
Excerpt: as §3, §4

CLL-B cells = experiment: Apoptosis of CLL-B cells, Annexin V staining (Incucyte); assay type: cell-based, human; settings: 20,000 CLL-B cells, 6 patients, technical triplicates, Annexin V Dye, 48 h, area under the curve
Excerpt: Concerning anti-apoptotic protein expression, a decrease in anti-apoptotic proteins BCL-2; BCL-XL and MCL-1 was observed after TAT-Pep treatment of CLL-B cells, possibly as a consequence of the SRC kinase inactivation (Fig. 6A–C). To unveil whether the regulation mechanism behind the observed modifications was transcriptional or post-transcriptional, we evaluated the mRNA levels of all three anti-apoptotic proteins following peptide treatment. […] To further underline that the induction of cell death following TAT-Pep treatment involved apoptosis regulation pathways, we used B cells from six CLL patients and stained them with Annexin V in both TAT-Pep treated and untreated conditions. As shown on Fig. 6G, TAT-Pep treatment did induce apoptosis in CLL-B cells. […] However, at 5 µM, there was already a 1.9-fold increase in cell death compared to the control. It progressively rose to a 2.5-fold increase and a 3.6-fold increase for 10 µM and 30 µM, respectively.
Figure 6 The peptide lowers anti-apoptotic proteins levels. CLL-B cells from 10 patients were incubated overnight, with or without 10 µM of TAT-Pep. Whole cell lysates were then prepared, and 10 µg of proteins were immunoblotted to assess the following parameters. (A) Relative level of the anti-apoptotic protein BCL-2 in B-CLL. (B) Relative level of the anti-apoptotic protein BCL-XL and (C) relative level of the anti-apoptotic protein MCL-1. CLL-B samples from ten different patients were utilized for the analysis. CLL-B cells from 12 patients were incubated overnight, with or without 10 µM of TAT-Pep, subsequently RNA was extracted from cell lysates and mRNA levels of BCL-2 (D); BCL-XL (E) and MCL-1 (F) were evaluated using RTqPCR; 18S was used as a housekeeping gene. (G) Increased concentrations (0 to 30 µM) of TAT-Pep were incubated with 20,000 CLL-B, and the number of Annexin V-positive cells was measured using the Incucyte live-cell imaging device. Fluorescence was monitored for 48 h. […] The ‘Green Object Count/Phase Object Count’ ratio was determined using the Incucyte analysis software to obtain the percentage of apoptotic cells. The area under the curve for each condition was then calculated, and they were compared using a t-test.
Cell viability and survival were monitored using the IncucyteS3 system (Sartorius), a live-cell imaging device enabling the tracking of fluorescence over set periods of time[41],[42]. […] In all analyses, the ‘Green Object Count/Phase Object Count’ ratio was determined using the Incucyte analysis software to obtain the percentage of dead cells. The area under the curve for each condition was then calculated, and they were compared using a t-test. To evaluate proliferation, phase confluence was determined and normalized with t = 0 h using the Incucyte analysis software.

NTSR2/TRKB interaction = NTSR2/TRKB interaction (Homo sapiens, UniProt Q16620); experiment: NTSR2-AviTag pull-down, inhibition of the NTSR2/TRKB interaction in transfected HEK293T cells; assay type: cell-based; parameters: host or cells: HEK293T
Chain of NTSR2/TRKB interaction (Q16620 32-822): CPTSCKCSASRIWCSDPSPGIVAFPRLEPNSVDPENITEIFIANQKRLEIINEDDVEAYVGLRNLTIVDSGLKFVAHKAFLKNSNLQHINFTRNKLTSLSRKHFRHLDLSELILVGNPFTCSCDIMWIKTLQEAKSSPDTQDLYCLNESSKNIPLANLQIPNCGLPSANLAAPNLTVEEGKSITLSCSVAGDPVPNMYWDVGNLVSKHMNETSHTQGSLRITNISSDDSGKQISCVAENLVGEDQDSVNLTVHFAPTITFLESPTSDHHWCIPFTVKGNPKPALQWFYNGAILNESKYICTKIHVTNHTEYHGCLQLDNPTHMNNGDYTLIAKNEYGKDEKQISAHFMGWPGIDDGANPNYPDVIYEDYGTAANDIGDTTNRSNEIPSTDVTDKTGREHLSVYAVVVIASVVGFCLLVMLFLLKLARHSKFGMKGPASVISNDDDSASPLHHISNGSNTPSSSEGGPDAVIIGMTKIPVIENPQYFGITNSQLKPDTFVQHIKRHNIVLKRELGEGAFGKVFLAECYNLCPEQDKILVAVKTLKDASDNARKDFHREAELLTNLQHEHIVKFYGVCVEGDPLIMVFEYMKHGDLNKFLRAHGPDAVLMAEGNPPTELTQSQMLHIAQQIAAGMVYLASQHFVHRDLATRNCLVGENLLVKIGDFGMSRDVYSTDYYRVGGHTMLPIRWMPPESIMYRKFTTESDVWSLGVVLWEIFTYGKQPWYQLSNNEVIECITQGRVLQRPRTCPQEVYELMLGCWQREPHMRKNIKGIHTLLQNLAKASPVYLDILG
Excerpt: Nuclei were stained with DAPI (blue). […] (C) Representative immunoblot of 3 independent experiments. […] Nuclei were stained with DAPI (blue). Magnification × 40.
The amount of co-immunoprecipitated TRKB protein was detected by immunoblot (Fig. 4C,D). […] This is associated to the low penetration of the peptide in the cells.
Vectors used were constructed by Vector Builder. The vector builder IDs are VB201022-1029qpx (BirA); VB201022-1027yza (TRKB-NTSR2) and VB201022-1012yjb (TRKB-NTSR2-AviTag™). 500 000 HEK293T cells were seeded and transfected the following day with 3 µg of plasmid using jetPEI (Polyplus Transfection). They were then treated with 40 µM biotin and with or without […] of BDNF (ABclonal).
Proteins were extracted using RIPA buffer (Sigma-Aldrich) and sonication (VibraCell™). They were then incubated with 30 μL of streptavidin-functionalized magnetic beads (Invitrogen) for 2 h at 4 °C under rotation. For western blot analysis, the magnetic beads were washed 4 times with cold PBS and the fixed proteins were eluted in 4 × Laemmli buffer supplemented with 10% β-mercaptoethanol and denatured at 95 °C for 5 min.
Whole cell lysate proteins were extracted using RIPA buffer (Sigma-Aldrich) and sonication (VibraCell™). […] Bands were quantitatively assessed by densitometry using Fiji software. […]

Sequence: GRKKRRQRRRPPQNAVSSSFRKLFLEAVSSLCGEHHPMKRLPPKPQSPTLMDTASGFGDPPETRT [TAT-Pep]
- global level of tyrosine phosphorylation (in words) [1]: general decrease in tyrosine phosphorylation
- mRNA level of BCL-XL (in words) (BCL-XL mRNA): significantly lowered expression
- amount of phosphorylated SRC (in words) (SRC): significant decrease
- mRNA level of MCL-1 (in words) (MCL-1 mRNA): significantly lowered expression
- level of anti-apoptotic protein BCL-2 (in words) (BCL-2): decrease
- level of anti-apoptotic protein BCL-XL (in words) (BCL-XL): decrease
- mRNA level of BCL-2 (in words) (BCL-2 mRNA): significantly lowered expression
- level of anti-apoptotic protein MCL-1 (in words) (MCL-1): decrease
- Annexin V-positive cells compared to the control (in words) (CLL-B cells; 2.5 µM): no significant cytotoxicity was observed
- increase in cell death (Annexin V-positive cells) compared to the control (CLL-B cells; 5 µM): 1.9 fold
- increase in cell death (Annexin V-positive cells) compared to the control (CLL-B cells; 10 µM): 2.5 fold
- increase in cell death (Annexin V-positive cells) compared to the control (CLL-B cells; 30 µM): 3.6 fold
- amount of co-immunoprecipitated TRKB protein (TRKB/NTSR2 ratio, in words) (NTSR2/TRKB interaction; transfected HEK293T cells incubated overnight with 10 µM peptide, streptavidin pull-down, immunoblot densitometry, 3 independent experiments): significant decrease
- effect of BDNF addition on the inhibited NTSR2/TRKB interaction (in words) (NTSR2/TRKB interaction; transfected HEK293T cells, 10 µM peptide overnight, BDNF in the culture medium): did not restore the interaction
